In test [1] the test system is Mahlavu cells. Kind of test: In vivo xenograft model of HCC. Particulars: Mahlavu xenograft in BALB/c nude mice, 30 or 60 mg/kg intraperitoneally every day for 18 days; FIG. 4. As to the method: All animal experiments were approved by the Institutional Animal Care and Use Committee of MacKay Memorial Hospital (Taiwan, R.O.C.). 6-week-old male BALB/c nude mice were injected subcutaneously with 1.0×10^7 Mahlavu cells into the bilateral back pad. When the tumor growth reached 50 mm^3, mice were randomly divided into three groups (n=5 mice each group): (1) low-dose group, in which 30 mg/kg of trilostane was intraperitoneally administered to the mouse every day for 18 days; (2) high-dose group, in which 60 mg/kg of trilostane was intraperitoneally administered to the mouse every day for 18 days; and (3) control group, in which vehicle control (Dimethyl sulfoxide, DMSO) of the same volume was intraperitoneally administered to the mouse every day for 18 days. The tumor volume was measured twice a week by the same investigator, and mice were sacrificed when tumors reached 10% of body weight.

The test system of the next test is mahlave cells. Kind of test: Transwell migration assay. The class given is cell-based, Human. Conditions: FIG. 2E.
Test [2] concerns Hep3B cells. In words: Wound healing assay, Hep3B cells. It counts as cell-based, Human. Particulars: 24 hours, FIG. 2D. As to the method: (§1) Human HCC cancer cell lines (including Mahlavu, Hep3B, and Huh7) were cultured in Dulbecco's modified Eagle medium (DMEM), supplemented with 10% (v/v) fetal bovine serum and antibiotics (100 units/mL penicillin, 100 μg/mL streptomycin, and 2.5 μg/mL amphotericin B). All cell lines have been periodically authenticated by short tandem repeat analysis at Bioresource Collection and Research Center, Hsinchu, Taiwan (R.O.C.) and tested for being mycoplasma free. Trilostane was purchased from LKT Laboratories, St. Paul, Minn. Mahlavu and Hep3B cells (2×10^5 cells/well) were seeded into 6-well plates and grown to confluence overnight. A wound was made by scraping with a sterilized 200-μL pipette tip in the middle of the cell monolayer, and the cells were allowed to migrate to the denuded area for 24 hours. The percentage of wound closure was measured using Olympus IX71 light microscope (Olympus, Tokyo, Japan).

The test system of test [3] is Mahlavu cells. Kind of test: Wound healing assay, Mahlavu cells. It counts as cell-based, Human. Conditions: 24 hours, FIG. 2C. Here is the method: as §1
The subject of test [4] is phosphorylated MEKK1 (p-MEKK1). In words: Western blot analysis of p-MEKK1 in Mahlavu cells. Conditions: Mahlavu cells after trilostane treatment, FIG. 3. It counts as cell-based, Human. Here is the method: (§2) Total cellular proteins were extracted, quantified, and subject to gel electrophoresis. Whole-cell lysates were isolated from Mahlavu cells. Equal amounts of proteins (40 μg/lane) were electrophoresed in 10% sodium dodecyl sulfatepolyacrylamide gel. The transferred membrane was blocked with 5% defatted milk and immunoblotted with primary antibodies against various proteins, including ERK (total form), p-ERK, p-AKT, E-cadherin, N-cadherin, Snail1, Twist, Vimentin, MLC II (total form), p-MLC II, ROCK, and GAPDH at room temperature for 3 hours. The antigen-antibody complexes were visualized with by chemiluminescence with the Amersham ECL detection system (GE Healthcare, Piscataway, N.J.).
A general note: Immunoblotting shows a protein as a band on a membrane.

For test [5], the system named is Mahlavu cells. Kind of test: Colony forming assay, Mahlavu cells. It counts as cell-based, Human. Conditions: various dosage of trilostane, 10 to 13 days, FIG. 2A. As to the method:
(§3) Human HCC cancer cell lines (including Mahlavu, Hep3B, and Huh7) were cultured in Dulbecco's modified Eagle medium (DMEM), supplemented with 10% (v/v) fetal bovine serum and antibiotics (100 units/mL penicillin, 100 μg/mL streptomycin, and 2.5 μg/mL amphotericin B). All cell lines have been periodically authenticated by short tandem repeat analysis at Bioresource Collection and Research Center, Hsinchu, Taiwan (R.O.C.) and tested for being mycoplasma free. Trilostane was purchased from LKT Laboratories, St. Paul, Minn. A total of 500 Mahlavu or Hep3B HCC cancer cells were seeded into 6-well plate and treated with various dosage of trilostane. The medium was replaced every 3 days. After 10 to 13 days, colonies were stained with 3% crystal violet and examined by microscopy. Colonies containing at least 50 individual cells were counted.

The test system of test [6] is phosphorylated ERK (p-ERK). In words: Western blot analysis of p-ERK in Mahlavu cells. The class given is cell-based, Human. Particulars: Mahlavu cells after trilostane treatment, FIG. 3. Here is the method: as §2
For test [7], the system named is Hep3B cells. In words: Colony forming assay, Hep3B cells. The class given is cell-based, Human. Particulars: various dosage of trilostane, 10 to 13 days, FIG. 2B. Here is the method: as §3

As for `C[C@]12CC[C@H]3[C@@H](CC[C@@]45O[C@@H]4C(O)=C(C#N)C[C@]35C)[C@@H]1CC[C@@H]2O` [trilostane], the tumor growth rate result with Mahlavu cells [1] was “significantly suppressed”. For the same compound, the cell migration result in the test with mahlave cells is “inhibitory effect”. Moreover, the wound closure entry in the test with Hep3B cells [2] and in the test on Mahlavu cells [3] was “significantly inhibited the wound closure” throughout. Besides, the “expression of phosphorylated MEKK1 (p-MEKK1)” value in test [4] is “down-regulated”. Moreover, the colony numbers entry with Mahlavu cells [5] and in the test with Hep3B cells [7] was “decreased colony numbers” throughout. In addition, the “expression of phosphorylated ERK (p-ERK)” value in test [6] is reported as “down-regulated”.

The values above are taken from patent US10925884B2, “Methods of diagnosing and treating hepatocellular carcinoma” (MacKay Memorial Hospital, priority 2017, dated 2021).
